Reference: patent publication US10131652B2, “Pyrimidinyloxy benzene derivatives as herbicides” (E. I. DU PONT DE NEMOURS AND COMPANY, priority 2014, dated 2018)

What was measured:
Format in all cases: in vivo
[1] = system: rice (Oryza sativa); assay: Test C flooded paddy test plant response; settings: Flood, 250 g ai/ha; scale of 0 to 100 where 0 is no effect and 100 is complete control; 13 to 15 days
Outline: (§1)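 Visual injury ratings (0, no effect; 100, complete control) were assigned after 13 to 15 days in a greenhouse, comparing treated plants with controls. Compounds had been added straight into paddy water over 2-leaf-stage plants flooded to 3 cm.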

[2] = system: ducksalad (Heteranthera limosa); assay: Test C flooded paddy test plant response; settings: Flood, 250 g ai/ha; scale of 0 to 100 where 0 is no effect and 100 is complete control; 13 to 15 days
Outline: as §1

[3] = system: barnyardgrass (Echinochloa crus-galli); assay: Test C flooded paddy test plant response; settings: Flood, 250 g ai/ha; scale of 0 to 100 where 0 is no effect and 100 is complete control; 13 to 15 days
Outline: as §1

[4] = system: small-flower umbrella sedge (Cyperus difformis); assay: Test C flooded paddy test plant response; settings: Flood, 250 g ai/ha; scale of 0 to 100 where 0 is no effect and 100 is complete control; 13 to 15 days
Outline: as §1

[5] = system: kochia (Kochia scoparia); assay: Test B pre-/postemergence plant response
Text: (§2) Seeds of plant species selected from bamyardgrass (Echinochloa crus-galli), kochia (Kochia scoparia), ragweed (common ragweed, Ambrosia elatior), Italian ryegrass (Lolium multiflorum), large (Lg) crabgrass (Digitaria sanguinalis), giant foxtail (Setaria faberii), momingglory (Ipomoea spp.), pigweed (Amaranthus retroflexus), velvetleaf (Abutilon theophrasti), wheat (Triticum aestivum), and corn (Zea mays) were planted into a blend of loam soil and sand and treated preemergence with a directed soil spray using test chemicals formulated in a non-phytotoxic solvent mixture which included a surfactant. At the same time, plants selected from these crop and weed species and also blackgrass (Alopecurus myosuroides), and galium (catchweed bedstraw, Galium aparine) were planted in pots containing the same blend of loam soil and sand and treated with postemergence applications of test chemicals formulated in the same manner. Plants ranged in height from 2 to 10 cm and were in the one- to two-leaf stage for the postemergence treatment. Treated plants and untreated controls were maintained in a greenhouse for approximately 10 days, after which time all treated plants were compared to untreated controls and visually evaluated for injury. Plant response ratings, summarized in Table B, are based on a 0 to 100 scale where 0 is no effect and 100 is complete control. A dash (-) response means no test result.

[6] = system: ragweed (common ragweed, Ambrosia elatior); assay: Test B pre-/postemergence plant response
Text: as §2

[7] = system: giant foxtail (Setaria faberii); assay: Test B pre-/postemergence plant response
Text: as §2

[8] = system: corn (Zea mays); assay: Test B pre-/postemergence plant response
Text: as §2

[9] = system: Italian ryegrass (Lolium multiflorum); assay: Test B pre-/postemergence plant response
Text: as §2

[10] = system: pigweed (Amaranthus retroflexus); assay: Test B pre-/postemergence plant response
Text: as §2

[11] = system: barnyardgrass (Echinochloa crus-galli); assay: Test B pre-/postemergence plant response
Text: as §2

[12] = system: wheat (Triticum aestivum); assay: Test B pre-/postemergence plant response
Text: as §2

[13] = system: blackgrass (Alopecurus myosuroides); assay: Test B postemergence plant response
Outline: (§3)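 Visual injury ratings, 0 = no effect to 100 = complete control, versus untreated controls approximately 10 days after postemergence spraying in greenhouse. Plants were at one- to two-leaf stage, 2 to 10 cm tall, in loam soil/sand blend; a dash denotes no result.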

[14] = system: galium (catchweed bedstraw, Galium aparine); assay: Test B postemergence plant response
Outline: as §3

[15] = 31 g ai/ha, Preemergence, 0 to 100 scale where 0 is no effect and 100 is complete control
[16] = 125 g ai/ha, postemergence, 0 to 100 scale, 0 no effect, 100 complete control
[17] = Postemergence, 31 g ai/ha, 0 to 100 scale (0 no effect, 100 complete control)
[18] = Preemergence, 125 g ai/ha, 0 to 100 scale (0 no effect, 100 complete control)
[19] = 31 g ai/ha, Postemergence, 0 to 100 scale, 0 no effect, 100 complete control

Row | SMILES | Rice plant response rating [1] | Ducksalad plant response rating [2] | Barnyardgrass plant response rating [3] | Sedge, Umbrella plant response rating [4] | Plant response rating, Kochia [5, 15] | Plant response rating, Kochia [5, 16] | Kochia plant response rating [5, 18] | Plant response rating, Ragweed [6, 15] | Plant response rating, Ragweed [6, 16] | Ragweed plant response rating [6, 18] | Plant response rating, Foxtail, Giant [7, 15] | Plant response rating, Foxtail, Giant [7, 16] | Foxtail, Giant plant response rating [7, 18] | Plant response rating, Corn [8, 16] | Plant response rating, Ryegrass, Italian [9, 15] | Plant response rating, Ryegrass, Italian [9, 16] | Ryegrass, Italian plant response rating [9, 18] | Plant response rating, Pigweed [10, 15] | Plant response rating, Pigweed [10, 16] | Pigweed plant response rating [10, 18] | other results
1 | FC(F)(F)COc1cc(-c2ccccc2Oc2ncc(Cl)cn2)on1 [Compound 176] | 0 | 75 | 0 | 30 | 0 | 100 | 20 | 0 | 20 | 0 | 60 | 50 | 90 | 30 | 0 | 10 | 10 | 30 | 100 | 90 | Plant response rating, Kochia [5, 17]: 30; Plant response rating, Ragweed [6, 17]: 10; Plant response rating, Foxtail, Giant [7, 17]: 20; Plant response rating, Corn [8, 17]: 10; Plant response rating, Ryegrass, Italian [9, 17]: 0; Plant response rating, Pigweed [10, 17]: 90; Plant response rating, Barnyardgrass [11, 15]: 10; Plant response rating, Barnyardgrass [11, 16]: 30; Plant response rating, Barnyardgrass [11, 17]: 10; Barnyardgrass plant response rating [11, 18]: 50; Plant response rating, Wheat [12, 16]: 0; Plant response rating, Wheat [12, 17]: 0; Plant response rating, Blackgrass [13, 16]: 30; Plant response rating, Blackgrass [13, 17]: 0; Plant response rating, Galium [14, 16]: 90; Plant response rating, Galium [14, 17]: 30
2 | Fc1ccnc(-c2ccccc2Oc2ncc(Cl)cn2)c1 [Compound 175] | 0 | 0 | 0 | 0 | 0 | 30 | 0 | 0 | 30 | 0 | 0 | 0 | 0 | 0 | 0 | 0 | 0 | 0 | 60 | 70 | Plant response rating, Kochia [5, 17]: 0; Plant response rating, Ragweed [6, 17]: 20; Plant response rating, Foxtail, Giant [7, 17]: 0; Plant response rating, Corn [8, 17]: 0; Plant response rating, Ryegrass, Italian [9, 17]: 0; Plant response rating, Pigweed [10, 17]: 50; Plant response rating, Barnyardgrass [11, 15]: 0; Plant response rating, Barnyardgrass [11, 16]: 10; Plant response rating, Barnyardgrass [11, 17]: 0; Barnyardgrass plant response rating [11, 18]: 0; Plant response rating, Wheat [12, 16]: 0; Plant response rating, Wheat [12, 17]: 0; Plant response rating, Blackgrass [13, 16]: 0; Plant response rating, Blackgrass [13, 17]: 0; Plant response rating, Galium [14, 16]: 40; Plant response rating, Galium [14, 17]: 20
3 | N#Cc1cc(-c2c(F)cccc2Oc2ncc(Cl)cn2)no1 [Compound 222] | 0 | 30 | 0 | 0 | 0 | 30 | 0 | 0 | 20 | 0 | 0 | 0 | 0 | 30 | 0 | 0 | 0 | 20 | 100 | 90 | Plant response rating, Kochia [5, 17]: 20; Plant response rating, Ragweed [6, 17]: 0; Plant response rating, Foxtail, Giant [7, 17]: 0; Plant response rating, Corn [8, 17]: 0; Plant response rating, Ryegrass, Italian [9, 17]: 0; Plant response rating, Pigweed [10, 17]: 30; Plant response rating, Barnyardgrass [11, 15]: 0; Plant response rating, Barnyardgrass [11, 16]: 0; Plant response rating, Barnyardgrass [11, 17]: 0; Barnyardgrass plant response rating [11, 18]: 0; Plant response rating, Wheat [12, 16]: 20; Plant response rating, Wheat [12, 17]: 0; Plant response rating, Blackgrass [13, 16]: 10; Plant response rating, Blackgrass [13, 17]: 0; Plant response rating, Galium [14, 16]: 90; Plant response rating, Galium [14, 17]: 30
4 | O=Cc1cc(-c2ccccc2Oc2ncc(Cl)cn2)co1 [Compound 140] | 0 | 0 | 0 | 0 | 0 | 0 | 0 | 0 | 0 | 0 | 0 | 0 | 0 | 0 | 0 | 0 | 0 | 0 | 0 | 0 | Plant response rating, Foxtail, Giant [7, 19]: 0; Plant response rating, Corn [8, 19]: 0; Plant response rating, Barnyardgrass [11, 19]: 0; Plant response rating, Barnyardgrass [11, 15]: 0; Plant response rating, Barnyardgrass [11, 16]: 0; Barnyardgrass plant response rating [11, 18]: 0; Plant response rating, Wheat [12, 16]: 0; Plant response rating, Blackgrass [13, 19]: 0; Plant response rating, Blackgrass [13, 16]: 0; Plant response rating, Galium [14, 16]: 0
5 | CC(=O)c1cc(-c2ccccc2Oc2ncc(Br)cn2)no1 [Compound 150] | 0 | 0 | 0 | 0 | 0 | 0 | 0 | 0 | 0 | 0 | 0 | 10 | 20 | 10 | 0 | 0 | 0 | 0 | 20 | 20 | Plant response rating, Kochia [5, 17]: 0; Plant response rating, Ragweed [6, 17]: 0; Plant response rating, Foxtail, Giant [7, 17]: 0; Plant response rating, Corn [8, 17]: 0; Plant response rating, Ryegrass, Italian [9, 17]: 0; Plant response rating, Pigweed [10, 17]: 10; Plant response rating, Barnyardgrass [11, 15]: 0; Plant response rating, Barnyardgrass [11, 16]: 20; Plant response rating, Barnyardgrass [11, 17]: 0; Barnyardgrass plant response rating [11, 18]: 20; Plant response rating, Wheat [12, 16]: 0; Plant response rating, Wheat [12, 17]: 0; Plant response rating, Blackgrass [13, 16]: 10; Plant response rating, Blackgrass [13, 17]: 0; Plant response rating, Galium [14, 16]: 10; Plant response rating, Galium [14, 17]: 0
